# Source: US5159102A, “7-thiaprostaglandins E, and process for producing same” (Teijin Limited, priority 1990, dated 1992)
# Tests used:
# [1] = system: blood platelet aggregation (ADP, PRP); assay: In vitro blood platelet aggregation inhibition effect; type: cell-based, native Japanese white male domestic rabbits; details: Oryctolagus cuniculus, rabbit PRP, 10 μM ADP, 37° C., read-out: Anti-platelet aggregation effect IC50
# Experimental: The in vitro blood platelet aggregation inhibition effect of the sample compounds to be tested was examined by using rabbits. That is, blood was collected from the ear vein of native Japanese white male domestic rabbits weighing 2.5 to 3.5 kg. The collected blood was 9 parts by volume per 1 part by volume of a 3.8% sodium citrate solution. The blood was centrifuged at 1000 r.p.m. for 10 minutes. The upper layer portion was separated as PRP (rich in platelet blood plasma). The lower layer portion was further centrifuged at 2800 r.p.m. for 10 minutes to divide it into two layers. The upper layer portion was separated as PPP (poor in platelet blood plasma). The number of the platelet was diluted with PPP to […]. After the adjustment, 25 μl of the sample compound was added to 250 μl of PRP, which was preincubated at a temperature of 37° C. for 2 minutes. Thereafter, 10 μM of ADP (final) was added to the preincubated PRP to record the variation of the transmittance by means of aggregometer. […]
# When the activity of the sample compounds was determined, the ethanol solution was diluted with a phosphoric acid buffer (PH 7.4). The ethanol solution diluted with the buffer was left to stand at a temperature of 0° C. for 4 hours, after which the activity of the sample compounds was determined in the same manner.
# The platelet aggregation inhibition was calculated by the following formula: […]
# [2] = system: ulcer formation induced by indomethacin (stomach); assay: Inhibiting effect on ulcer formation induced by indomethacin (antiulcerative effect); type: in vivo; details: Rattus norvegicus, po; P.O., Wister male rats; 30 min before indomethacin 20 mg/kg p.o.; ulcer length 5 h after
# Experimental: The inhibiting effect on ulcer formation induced by indomethacin was examined by using rats. Wister male rats (7 weeks old and body weight of 220 g) were abstained from food for 24 hours except giving water and then subjected to experiments.
# The sample compounds to be tested were dissolved in a phosphoric acid buffer (pH 7.4) containing 0.9% NaCl and the solution was orally administered to the rats. 30 minutes after the administration, indomethacin was orally administered to the rats at a dose of 20 mg/kg. 5 hours after the administration of the indomethacin, the rats were killed and the ulcer formation in the stomach was examined by determining the length of the ulcer formation portion under a stereomicroscope. From this measurement, the inhibition of ulcer formation by the sample compounds were calculated to determine the ED values.
SMILES,IC50 [1],ED50 [2]
CCCCC(O)C/C=C/[C@H]1[C@H](O)CC(=O)[C@@H]1SCCCCCC(=O)OC (stereo partly shown),17 µg/mL,0.01 mg/kg
CCCCCC(O)/C=C/C1CCC(=O)C1SCCCCCC(=O)OC (stereo not shown),> 100 µg/mL,0.3 mg/kg
